The text below walks through data of patent publication US6559164B1, “Substituted pyrroles suitable for continuous infusion” (Hoffmann-La Roche Inc., priority 1999, dated 2003).

A short description of data set [1]: Plasma conversion (degradation in plasma to the active metabolite). It is filed as in vitro ADME. The conditions noted are these: human or rodent plasma at 37° C., percent degradation. The procedure: “Plasma conversion” with respect to compounds of formula I means the degradation (enzymatic and/or non-enzymatic) of such compound in human or rodent plasma at 37° C. from 30 minutes to 6 hours to give 3-(1-methyl-3-indolyl)-4-(1-methyl-6-nitro-3-indolyl)-1H-pyrrole-2,5-dione, a pharmaceutically active metabolite of compounds of formula I, as well as pharmaceutically active metabolites thereof. This conversion is typically given as the percent degradation over a specified time frame.

Data set [2] in a line: Stability in solution for intravenous administration (release of 3-(1-methyl-3-indolyl)-4-(1-methyl-6-nitro-3-indolyl)-1H-pyrrole-2,5-dione). It is filed as physicochemical. The note with it: 72 hours at room temperature in a mixture of acetonitrile and saline or dextrose water; parent pyrrole-2,5-dione detected. The procedure: “Stability” is an overall assessment of the ability of a compound of formula I to withstand degradation in a typical solution used for the administration of drugs intravenously. Specifically, it refers to the ability of any given compound of formula I to release 3-(1-methyl-3-indolyl)-4-(1-methyl-6-nitro-3-indolyl)-1H-pyrrole-2,5-dione, over a 72 hour period in a mixture of acetonitrile and saline or dextrose water. The
“stability” of a compound of formula I is “very good” if the less than 1% 3-(1-Methyl-3-indolyl)-4-(1-methyl-6-nitro-3-indolyl)-1H-pyrrole-2,5-dione is detected, “good” if less than 2.5% 3-(1-Methyl-3-indolyl)-4-(1-methyl-6-nitro-3-indolyl)-1H-pyrrole-2,5-dione is detected, and “fair” if less than 5% 3-(1-Methyl-3-indolyl)-4-(1-methyl-6-nitro-3-indolyl)-1H-pyrrole-2,5-dione is detected after 72 hours incubation at room temperature.

Structures can show the parent of a compound that is named as a salt.

In general, melting point refers to the temperature of the solid-liquid transition. `Cn1cc(C2=C(c3cn(C)c4cc([N+](=O)[O-])ccc34)C(=O)N(CO)C2=O)c2ccccc21` returned a melting point of 209 to 211 °C. In the case of `Cn1cc(C2=C(c3cn(C)c4cc([N+](=O)[O-])ccc34)C(=O)N(COC(=O)c3cccnc3)C2=O)c2ccccc21` [Example 3a, nicotinic acid 3-(1-methyl-1H-indol-3-yl)-4-(1-methyl-6-nitro-1H-indol-3-yl)-2,5-dioxo-2,5-dihydro-pyrrol-1-ylmethyl ester], in data set [1] (@ 30 min), the “Plasma Conversion” value is reported as 70% @ 30 min. The Stability entry in data set [2] was “Good”. The like results for `Cn1cc(C2=C(c3cn(C)c4cc([N+](=O)[O-])ccc34)C(=O)N(COC(=O)Cc3ccncc3)C2=O)c2ccccc21` [Example 3c, pyridin-4-yl acetic acid 3-(1-methyl-1H-indol-3-yl)-4-(1-methyl-6-nitro-1H-indol-3-yl)-2,5-dioxo-2,5-dihydro-pyrrol-1-ylmethyl ester] were, in that order, 60% @ 30 min and “Good”. The like results for `Cn1cc(C2=C(c3cn(C)c4cc([N+](=O)[O-])ccc34)C(=O)N(COC(=O)Cc3cccnc3)C2=O)c2ccccc21` [Example 3d, pyridin-3-yl acetic acid 3-(1-methyl-1H-indol-3-yl)-4-(1-methyl-6-nitro-1H-indol-3-yl)-2,5-dioxo-2,5-dihydro-pyrrol-1-ylmethyl ester] were, in that order, 70% @ 30 min and “Good”. `Cn1cc(C2=C(c3cn(C)c4cc([N+](=O)[O-])ccc34)C(=O)N(COC(=O)CCC(=O)O)C2=O)c2ccccc21` [Example 3f, succinic acid mono-[3-(1-methyl-1H-indol-3-yl)-4-(1-methyl-6-nitro-1H-indol-3-yl)-2,5-dioxo-2,5-dihydro-pyrrol-1-ylmethyl] ester]: in data set [1] (@ 30 min), the “Plasma Conversion” value was 20% @ 30 min. For the same molecule, in data set [2], the Stability entry is “Good”. As to `CCCCCCC=CCCCCCCCC(=O)OCN1C(=O)C(c2cn(C)c3ccccc23)=C(c2cn(C)c3cc([N+](=O)[O-])ccc23)C1=O` [Example 3g, hexadec-9-enoic 3-(1-methyl-1H-indol-3-yl)-4-(1-methyl-6-nitro-1H-indol-3-yl)-2,5-dioxo-2,5-dihydro-pyrrol-1-ylmethyl ester], the Stability entry in data set [2] is listed as “Good”. In the case of `Cn1cc(C2=C(c3cn(C)c4cc([N+](=O)[O-])ccc34)C(=O)N(COC(=O)COCCOCCOCCOCC(=O)O)C2=O)c2ccccc21` [Example 3h, [2-[2-(2-carboxymethoxy-ethoxy)-ethoxy]-ethoxy] acetic acid-3-(1-methyl-1H-indol-3-yl)-4-(1-methyl-6-nitro-1H-indol-3-yl)-2,5-dioxo-2,5-dihydro-pyrrol-1-ylmethyl ester], in data set [2], the Stability result was “Fair”.

Turning to `Cn1cc(C2=C(c3cn(C)c4cc([N+](=O)[O-])ccc34)C(=O)N(COC(=O)C3CCNCC3)C2=O)c2ccccc21` [Example 8a, piperidine-4-carboxylic acid 3-(1-methyl-1H-indol-3-yl)-4-(1-methyl-6-nitro-1H-indol-3-yl)-2,5-dioxo-2,5-dihydro-pyrrol-1-ylmethyl ester trifluoroacetate], the “Plasma Conversion” value in data set [1] (@ 30 min) was 30% @ 30 min. Moreover, the Stability result in data set [2] is “Good”. For `Cn1cc(C2=C(c3cn(C)c4cc([N+](=O)[O-])ccc34)C(=O)N(COC(=O)c3ccc[n+](C)c3)C2=O)c2ccccc21` [Example 12, 1-Methyl-3-[3-(1-methyl-1H-indol-3-yl)-4-(1-methyl-6-nitro-1H-indol-3-yl)-2,5-dioxo-2,5-dihydro-pyrrol-1-ylmethoxycarbonyl]-pyridinium; Trifluoroacetate], the “Plasma Conversion” value in data set [1] (@ 30 min) was determined as 60% @ 30 min. Also, the Stability entry in data set [2] was “Fair”. In the case of `Cn1cc(C2=C(c3cn(C)c4cc([N+](=O)[O-])ccc34)C(=O)N(COC(=O)c3ccc(OP(=O)(O)O)cc3)C2=O)c2ccccc21` [Example 14, 4-Phosphonooxy-benzoic Acid 3-(1-Methyl-1H-indol-3-yl)-4-(1-methyl-6-nitro-1H-indol-3-yl)-2,5-dioxo-2,5-dihydro-pyrrol-1-ylmethyl Ester Monosodium Salt], the “Plasma Conversion” value in data set [1] (@ 4 hrs) was 5% @ 4 hrs. The Stability result in data set [2] is on record as “Good”. In the case of `Cn1cc(C2=C(c3cn(C)c4cc([N+](=O)[O-])ccc34)C(=O)N(COC(=O)NCCOP(=O)(O)O)C2=O)c2ccccc21` [Example 20, (2-Phosphonooxy-ethyl)-carbamic Acid 3-(1-Methyl-1H-indol-3-yl)-4-(1-methyl-6-nitro-1H-indol-3-yl)-2,5-dioxo-2,5-dihydro-pyrrol-1-ylmethyl Ester], the Stability entry in data set [2] is “Good”. Consider `CCN(CC)CCNC(=O)N1C(=O)C(c2cn(C)c3ccccc23)=C(c2cn(C)c3cc([N+](=O)[O-])ccc23)C1=O` [Example 21, 3-(1-Methyl-1H-indol-3-yl)-4-(1-methyl-6-nitro-1H-indol-3-yl)-2,5-dioxo-2,5-dihydro-pyrrole-1-carboxylic Acid (2-Diethylamino-ethyl)-amide], for which the “Plasma Conversion” value in data set [1] (@ 1 hr) turned out to be 100% @ 1 hr. Moreover, the Stability result in data set [2] was “Fair”. For `Cn1cc(C2=C(c3cn(C)c4cc([N+](=O)[O-])ccc34)C(=O)N(C(=O)NCCCCOP(=O)([O-])[O-])C2=O)c2ccccc21.[Na+].[Na+]` [Example 24, Phosphoric Acid Mono-(4-{[3-(1-methyl-1H-indol-3-yl)-4-(1-methyl-6-nitro-1H-indol-3-yl)-2,5-dioxo-2,5-dihydro-pyrrole-1-carbonyl]-amino}-butyl) Ester Sodium Salt], the “Plasma Conversion” value in data set [1] (@ 6 hrs) is 10% @ 6 hrs. Also, the Stability entry in data set [2] is reported as “Good”. Regarding “[[3-(1-Methyl-1H-indol-3-yl)-4-(1-methyl-6-nitro-1H-indol-3-yl)-2,5-dioxo-2,5-dihydro-pyrrol-1-yl]methoxycarbonyl]-4-phenyl-O-methylpolyethylene Glycol 500 [Example 15]”, in data set [1] (@ 2 hrs), the “Plasma Conversion” value is recorded as 100% @ 2 hrs. In addition, the Stability entry in data set [2] is reported as “Good”.
